“And” between values parts separate entries of the source, which are not always exact repeats. Equal entries are not always repeated. Toxic doses and inconclusive results are not listed. Cut-off read from the data, not from the text of the source: active = T/C of 150% or more; inactive = T/C below 125%.
Test system: L1210 leukemia ip in BDF1 mice, survival T/C
Test: NCI In Vivo Anticancer Drug Screen. Data for tumor model L1210 Leukemia (intraperitoneal) in B6D2F1 (BDF1) mice
Conditions: endpoint: mean survival time, higher = longer survival
Summary of the method: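 Tumor was transplanted into mice, which were then dosed with test compound or vehicle alone. Survival was recorded for each group, and the treated figure was expressed relative to the control figure.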

[1] = dose: 6.25 mg/kg/injection, schedule: Q01DX009 (ip), vehicle: saline
[2] = dose: 25.0 mg/kg/injection, schedule: Q04DX002 (ip), vehicle: Klucel (hydroxypropylcellulose) (HPC)
[3] = dose: 50.0 mg/kg/injection, schedule: Q01DX001 (ip), vehicle: saline with Tween-80
[4] = dose: 50.0 mg/kg/injection, schedule: Q04DX002 (ip), vehicle: Klucel (hydroxypropylcellulose) (HPC)
[5] = dose: 100.0 mg/kg/injection, schedule: Q04DX002 (ip), vehicle: Klucel (hydroxypropylcellulose) (HPC)
[6] = dose: 200.0 mg/kg/injection, schedule: Q04DX002 (ip), vehicle: Klucel (hydroxypropylcellulose) (HPC)
[7] = dose: 400.0 mg/kg/injection, schedule: Q04DX002 (ip), vehicle: Klucel (hydroxypropylcellulose) (HPC)
[8] = dose: 100.0 mg/kg/injection, schedule: Q04DX003 (ip), vehicle: saline with Tween-80
[9] = dose: 200.0 mg/kg/injection, schedule: Q04DX003 (ip), vehicle: saline with Tween-80
[10] = dose: 400.0 mg/kg/injection, schedule: Q04DX003 (ip), vehicle: saline with Tween-80
[11] = dose: 100.0 mg/kg/injection, schedule: Q01DX001 (ip), vehicle: saline
[12] = dose: 200.0 mg/kg/injection, schedule: Q01DX001 (ip), vehicle: saline
[13] = dose: 75.0 mg/kg/injection, schedule: Q01DX001 (ip), vehicle: other
[14] = dose: 25.0 mg/kg/injection, schedule: Q04DX003 (ip), vehicle: saline
[15] = dose: 100.0 mg/kg/injection, schedule: Q04DX003 (ip), vehicle: Klucel (hydroxypropylcellulose) (HPC)
[16] = dose: 200.0 mg/kg/injection, schedule: Q04DX003 (ip), vehicle: Klucel (hydroxypropylcellulose) (HPC)
[17] = dose: 400.0 mg/kg/injection, schedule: Q04DX003 (ip), vehicle: Klucel (hydroxypropylcellulose) (HPC)

Measured: T/C

COC(=O)c1ccccc1C[P+](c1ccccc1)(c1ccccc1)c1ccccc1
inactive: dose: 0.75 mg/kg/injection, schedule: Q01DX001 (ip), vehicle: saline with Tween-80 90 % of control | dose: 0.75 mg/kg/injection, schedule: Q01DX009 (ip), vehicle: saline 91 % of control | dose: 0.75 mg/kg/injection, schedule: Q04DX003 (ip), vehicle: saline 108 % of control | dose: 1.5 mg/kg/injection, schedule: Q01DX001 (ip), vehicle: saline with Tween-80 101 % of control | dose: 1.5 mg/kg/injection, schedule: Q01DX009 (ip), vehicle: saline 102 % of control | dose: 1.5 mg/kg/injection, schedule: Q04DX003 (ip), vehicle: saline 106 % of control | dose: 3.0 mg/kg/injection, schedule: Q01DX001 (ip), vehicle: saline with Tween-80 100 % of control and 106 % of control | dose: 3.0 mg/kg/injection, schedule: Q01DX009 (ip), vehicle: saline 94 % of control | dose: 3.0 mg/kg/injection, schedule: Q04DX003 (ip), vehicle: saline 116 % of control | dose: 3.12 mg/kg/injection, schedule: Q01DX009 (ip), vehicle: saline 100 % of control and 106 % of control | dose: 6.0 mg/kg/injection, schedule: Q01DX001 (ip), vehicle: saline with Tween-80 101 % of control | dose: 6.25 mg/kg/injection, schedule: Q01DX009 (ip), vehicle: saline with Tween-80 97 % of control and 111 % of control | [1] 100 % of control and 91 % of control | dose: 12.5 mg/kg/injection, schedule: Q04DX002 (ip), vehicle: Klucel (hydroxypropylcellulose) (HPC) 102 % of control | dose: 25.0 mg/kg/injection, schedule: Q01DX001 (ip), vehicle: saline with Tween-80 98 % of control | [2] 88 % of control | dose: 25.0 mg/kg/injection, schedule: Q04DX002 (ip), vehicle: saline with Tween-80 104 % of control and 88 % of control | [3] 106 % of control | [4] 102 % of control

COc1cccc(/C=N/N=C(N)N)c1OC
inactive: dose: 62.5 mg/kg/injection, schedule: Q01DX Z (ip), vehicle: saline 101 % of control

CCN(CCO)C(=O)C1C(c2ccccc2)C1c1ccccc1 (stereo not given)
inactive: [5] 97 % of control | [6] 100 % of control | [7] 90 % of control

CC(=O)Oc1ccc2c3c(c(=O)oc2c1)C(C)(C)c1c(c(=O)oc2cc(OC(C)=O)ccc12)C3(C)C
inactive: dose: 100.0 mg/kg/injection, schedule: Q01DX009 (ip), vehicle: saline sonified 97 % of control | dose: 100.0 mg/kg/injection, schedule: Q04DX003 (ip), vehicle: saline sonified 102 % of control | dose: 200.0 mg/kg/injection, schedule: Q01DX009 (ip), vehicle: saline sonified 98 % of control | dose: 200.0 mg/kg/injection, schedule: Q04DX003 (ip), vehicle: saline sonified 97 % of control | dose: 400.0 mg/kg/injection, schedule: Q01DX009 (ip), vehicle: saline sonified 98 % of control | dose: 400.0 mg/kg/injection, schedule: Q04DX003 (ip), vehicle: saline sonified 105 % of control

Cc1ccc(C)c(NC(=O)NC2CCCCC2)c1
inactive: dose: 100.0 mg/kg/injection, schedule: Q04DX002 (ip), vehicle: saline 101 % of control | dose: 200.0 mg/kg/injection, schedule: Q04DX002 (ip), vehicle: saline 97 % of control | dose: 400.0 mg/kg/injection, schedule: Q04DX002 (ip), vehicle: saline 103 % of control

CN(C)OC(=O)Nc1cccc2ccccc12
inactive: dose: 100.0 mg/kg/injection, schedule: Q04DX002 (ip), vehicle: DMSO 96 % of control | dose: 200.0 mg/kg/injection, schedule: Q04DX002 (ip), vehicle: DMSO 108 % of control | dose: 400.0 mg/kg/injection, schedule: Q04DX002 (ip), vehicle: DMSO 101 % of control

CN(C)N=Nc1ccc(C(F)(F)F)cc1
inactive: [3] 97 % of control | dose: 50.0 mg/kg/injection, schedule: Q01DX009 (ip), vehicle: saline with Tween-80 94 % of control | dose: 50.0 mg/kg/injection, schedule: Q04DX003 (ip), vehicle: saline with Tween-80 98 % of control | dose: 100.0 mg/kg/injection, schedule: Q01DX001 (ip), vehicle: saline with Tween-80 103 % of control | dose: 100.0 mg/kg/injection, schedule: Q01DX009 (ip), vehicle: saline with Tween-80 94 % of control | [8] 98 % of control | dose: 200.0 mg/kg/injection, schedule: Q01DX001 (ip), vehicle: saline with Tween-80 105 % of control | dose: 200.0 mg/kg/injection, schedule: Q01DX009 (ip), vehicle: saline with Tween-80 97 % of control | [9] 101 % of control | dose: 400.0 mg/kg/injection, schedule: Q01DX001 (ip), vehicle: saline with Tween-80 101 % of control | dose: 400.0 mg/kg/injection, schedule: Q01DX009 (ip), vehicle: saline with Tween-80 98 % of control | [10] 98 % of control

CCOC(=O)C1(c2cc(NS(=O)(=O)N(C)C)c(Cl)cc2NS(=O)(=O)N(C)C)CCCC1=O (stereo not given)
inactive: dose: 50.0 mg/kg/injection, schedule: Q01DX001 (ip), vehicle: saline 104 % of control | [11] 102 % of control | [12] 91 % of control

CCN1CCCC(SC(=O)C(O)(c2ccccc2)c2ccccc2)C1 (stereo not given)
inactive: [13] 94 % of control | dose: 150.0 mg/kg/injection, schedule: Q01DX001 (ip), vehicle: other 94 % of control | dose: 300.0 mg/kg/injection, schedule: Q01DX001 (ip), vehicle: other 88 % of control

CC(=O)NC1CCC(=O)C=C1c1ccccc1 (stereo not given)
inactive: [11] 96 % of control | [12] 107 % of control | dose: 400.0 mg/kg/injection, schedule: Q01DX001 (ip), vehicle: saline 94 % of control

CCc1cccc[n+]1CC(=O)c1ccccc1
inactive: [1] 95 % of control | dose: 12.5 mg/kg/injection, schedule: Q01DX009 (ip), vehicle: saline 98 % of control | [14] 96 % of control

COc1ccccc1CNCc1ccccc1
inactive: [13] 101 % of control

CCOP(=O)(OCC)OC(=C(Cl)Cl)C(Cl)(Cl)Cl
inactive: dose: 100.0 mg/kg/injection, schedule: Q04DX002 (ip), vehicle: saline with Tween-80 115 % of control | dose: 200.0 mg/kg/injection, schedule: Q04DX002 (ip), vehicle: saline with Tween-80 102 % of control

COc1ccc(C2=NCCO2)cc1N
inactive: dose: 100.0 mg/kg/injection, schedule: Q01DX001 (ip), vehicle: Klucel (hydroxypropylcellulose) (HPC) 114 % of control | [15] 96 % of control | dose: 200.0 mg/kg/injection, schedule: Q01DX001 (ip), vehicle: Klucel (hydroxypropylcellulose) (HPC) 104 % of control | [16] 98 % of control | dose: 400.0 mg/kg/injection, schedule: Q01DX001 (ip), vehicle: Klucel (hydroxypropylcellulose) (HPC) 104 % of control | [17] 91 % of control

C[P+]1(CCc2ccc(Cl)cc2)CC=CC1
inactive: [14] 93 % of control | dose: 50.0 mg/kg/injection, schedule: Q04DX003 (ip), vehicle: saline 103 % of control | dose: 100.0 mg/kg/injection, schedule: Q04DX003 (ip), vehicle: saline 96 % of control and 88 % of control

Cc1cccc(CN=C(N)CSS(=O)(=O)O)n1
inactive: dose: 25.0 mg/kg/injection, schedule: Q01DX009 (ip), vehicle: Klucel (hydroxypropylcellulose) (HPC) 104 % of control | [2] 92 % of control | dose: 50.0 mg/kg/injection, schedule: Q01DX009 (ip), vehicle: Klucel (hydroxypropylcellulose) (HPC) 96 % of control | [4] 103 % of control | [5] 101 % of control and 88 % of control

O=C(Nc1ccc(C(=O)O)c(O)c1)Oc1ccccc1
inactive: [15] 90 % of control | [16] 98 % of control | [17] 107 % of control

CCn1c(N)c(N)c(=O)[nH]c1=S
inactive: [8] 86 % of control | [9] 93 % of control | [10] 86 % of control

CNC(=S)N/N=C(\C=N\NC(=S)NC)c1ccc(OC)cc1
inactive: [5] 101 % of control | [6] 101 % of control | [7] 105 % of control

From PubChem BioAssay AID248 (DTP/NCI, 2004)
